In patent EP1035837B1, “LIPID COMPOSITIONS AND THEIR USE” (PHARES PHARMACEUTICAL RESEARCH N.V., priority 1997, dated 1999):

Legend:
[1] = cited from earlier work
[2] = Pro-liposome gel formulation work: effect of ethanol and drug concentration on drug solubility, gel formation and gel appearance on storage; assay type: physicochemical
Protocol: Approximately 10% of the total lipid and all the ethanol were weighed into an amber glass jar and mixed until all the lipid had dispersed. The antifungal drug was added to the lipid/ethanol mixture and further mixing was carried out to break up the drug particles. The remainder of the lipid was added and mixing was continued until all the lipid had been dispersed. The glycerol was then added and stirring was continued until a homogenous gel was obtained. It was clear and translucent with a sweet pleasant taste and could be applied directly to the mucosa. From about 1% to 10% or more, but preferably about 2% to 5% of a hydrophilic polymer or natural gum can be dispersed in powder form to render the preparation muco-adhesive. Compositions utilising lipid blends or lecithins which contain 45% PC, form liposomes on conversion with water. The drug is associated with the liposomes at very high levels, ie greater than 90%.
The preparation of the pro-liposome miconazole and clotrimazole gel was as described above. Early formulation work was carried out to find: • i) A gel formulation with enough ethanol to dissolve the miconazole and clotrimazole giving the gel a translucent appearance, but with […] as to obtain an optimum viscosity profile (Table 1). • ii) A gel formulation with not too much miconazole or clotrimazole to induce crystallisation of the drug in the gel (Table 2).
At this level of ethanol, miconazole drug crystallisation was not seen in 1% and 2.5% miconazole gals.

[3] = % encapsulation of drug into liposomes from pro-liposome gels (filtration through 200 nm filters, HPLC); assay type: physicochemical; conditions: Example 3 gel (90% PC, Tris base); average particle size of 1-5µ
Protocol: The % encapsulation of the antifungal drugs miconazole and clotrimazole was determined by filtration of the liposome dispersion and by HPLC analysis of the unfiltered and filtered solutions for drug content. The principle behind the filtration technique is that the liposomes (with encapsulated antifungal). can be passed through 200 nm filters, while unencapsulated drug particles remain too large to pass through the filters. Pro-liposome gels were prepared, containing 2.5% and 1% miconazole and 1% and 0.5% clotrimazole. […] The % encapsulation of drug would be expected to decrease if crystallisation occurred in the gels with time.
Using the method of Example 1, pro-liposome gels were made with various concentrations of amphotericin B. The % encapsulation of the amphotericin B into liposomes (in 0.1% suspensions of the gel formulations) was measured at 3 days, 1 month, 3 months and 6 months after pro-liposome preparation. The gels were stored at 4°C ;in sealed containers, protected from light (Table 4). […]

[4] = Table 1, ethanol 5 %, 45% PC lipid 20 %, drug 1 %, glycerol 74 %
[5] = Table 2, ethanol 5 %, 45%PC 20 %, drug 1 %, glycerol 74 %
[6] = Table 2, ethanol 5 %, 45%PC 20 %, glycerol 72.5 %, drug 2.5 % (clotrimazole line prints 1)
[7] = ethanol 2.5 %, 45% PC lipid 20 %, drug 1 %, glycerol 76.5 %
[8] = ethanol 10 %, 45% PC lipid 20 %, drug 1 %, glycerol 69 %
[9] = ethanol 15 %, 45% PC lipid 20 %, drug 1 %, glycerol 64 %

| SMILES | solubility in ethanol [1] | solubility in water [1] | Initial Comments: drug solubility in ethanol + 10% of lipid [2, 4] | Initial Comments: drug solubility in ethanol + 10% of lipid [2, 5] | Initial Comments: drug solubility in ethanol + 10% of lipid [2, 6] | Initial Comments: drug solubility in ethanol + 10% of lipid [2, 7] | Initial Comments: drug solubility in ethanol + 10% of lipid [2, 8] | Initial Comments: drug solubility in ethanol + 10% of lipid [2, 9] | encapsulation into liposomes formed from the pro-liposome by addition of water [3] |
| --- | --- | --- | --- | --- | --- | --- | --- | --- | --- |
| Clc1ccccc1C(c1ccccc1)(c1ccccc1)n1ccnc1 [Clotrimazole, 1-(o-chloro-a,a-diphenylbenzyl)imidazole] | soluble | insoluble | Clotrimazole soluble in ethanol + 10% of lipid. Clear, golden gel formed with good viscosity | Clotrimazole soluble in ethanol + 10% of lipid. Clear, golden gel formed with good viscosity | Clotrimazole soluble in ethanol + 10% of lipid. Clear, golden gel formed with good viscosity | Clotrimazole insoluble in ethanol + 10% of lipid. Not enough ethanol to disperse all the lipid and form a gel | Clotrimazole soluble in ethanol + 10% of lipid. Clear, golden gel formed with runny viscosity | Clotrimazole soluble in ethanol + 10% of lipid. Clear, golden gel formed with very runny viscosity |  |
| C[C@@H]1[C@H](O)[C@@H](C)/C=C/C=C/C=C/C=C/C=C/C=C/C=C/[C@H](O[C@@H]2O[C@H](C)[C@@H](O)[C@H](N)[C@@H]2O)C[C@@H]2O[C@](O)(C[C@@H](O)C[C@@H](O)[C@H](O)CC[C@@H](O)C[C@@H](O)CC(=O)O[C@H]1C)C[C@H](O)[C@H]2C(=O)O [Amphotericin B, amphotericin B] |  |  |  |  |  |  |  |  | ~100% |
| Clc1ccc(COC(Cn2ccnc2)c2ccc(Cl)cc2Cl)c(Cl)c1 (stereo not drawn) [Miconazole, 1-[2-dichloro-β-[2,4-dichlorobenzyl)oxyphenethyl]imidazole mononitrate] | very soluble | very slightly soluble | Miconazole soluble in ethanol + 10% of lipid. Clear, golden gel formed with good viscosity | Miconazole soluble in ethanol + 10% of lipid. Clear, golden gel formed with good viscosity | Miconazole soluble in ethanol + 10% of lipid. Clear, golden gel formed with good viscosity | Miconazole soluble in ethanol + 10% of lipid. Not enough ethanol to disperse all the lipid and form a gel | Miconazole soluble in ethanol + 10% of lipid. Clear, golden gel formed with runny viscosity | Miconazole soluble in ethanol + 10% of lipid. Clear, golden gel formed with very runny viscosity |  |
